Experimental data: patent publication US10485235B2, “Aryloxypyrimidinyl ethers as herbicides” (FMC Corporation, priority 2015, dated 2019)

Legend:
Type in all cases: in vivo
[1] = test system: barnyardgrass (Echinochloa crus-galli); experiment: Test A postemergence, barnyardgrass; settings: Echinochloa crus-galli, post-emergence, 240 h, postemergence, 0 to 100 scale, 0 is no effect, 100 is complete control, approximately 10 days, read-out: Plant response rating, Barnyardgrass; for pest or weed control at 125 g/ha: 125 g ai/ha
Procedure, shortened: (§1)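 For postemergence, one- to two-leaf plants 2–10 cm tall were sprayed; for preemergence, seeded loam–sand soil got a directed spray. Both used compound in a non-phytotoxic, surfactant-containing solvent, with visual injury ratings (0–100) after roughly 10 greenhouse days.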

[2] = test system: foxtail, giant (giant foxtail, Setaria faberii); experiment: Test A postemergence, giant foxtail; settings: Setaria faberi, post-emergence, 240 h, postemergence, 0 to 100 scale, 0 is no effect, 100 is complete control, approximately 10 days, read-out: Plant response rating, Foxtail, Giant; for pest or weed control at 125 g/ha: 125 g ai/ha
Procedure, shortened: as §1

[3] = test system: blackgrass (Alopecurus myosuroides); experiment: Test A postemergence, blackgrass; settings: Alopecurus myosuroides, post-emergence, 240 h, postemergence, 0 to 100 scale, 0 is no effect, 100 is complete control, approximately 10 days, read-out: Plant response rating, Blackgrass; for pest or weed control at 125 g/ha: 125 g ai/ha
Procedure, shortened: as §1

[4] = test system: wheat (Triticum aestivum); experiment: Test A postemergence, wheat; settings: Triticum aestivum, post-emergence, 240 h, postemergence, 0 to 100 scale, 0 is no effect, 100 is complete control, approximately 10 days, read-out: Plant response rating, Wheat; for plant injury at 125 g/ha: 125 g ai/ha
Procedure, shortened: as §1

[5] = test system: kochia (Kochia scoparia); experiment: Test A postemergence, kochia; settings: Bassia scoparia, post-emergence, 240 h, postemergence, 0 to 100 scale, 0 is no effect, 100 is complete control, approximately 10 days, read-out: Plant response rating, Kochia; for pest or weed control at 125 g/ha: 125 g ai/ha
Procedure, shortened: as §1

[6] = test system: galium (catchweed bedstraw, Galium aparine); experiment: Test A postemergence, galium; settings: Galium, post-emergence, 240 h, postemergence, 0 to 100 scale, 0 is no effect, 100 is complete control, approximately 10 days, read-out: Plant response rating, Galium; for pest or weed control at 125 g/ha: 125 g ai/ha
Procedure, shortened: as §1

[7] = test system: corn (Zea mays); experiment: Test A postemergence, corn; settings: Zea mays, post-emergence, 240 h, postemergence, 0 to 100 scale, 0 is no effect, 100 is complete control, approximately 10 days; for Corn plant response rating (crop injury, 0 = no effect, 100 = complete kill) at 125 g/ha: 125 g ai/ha
Procedure, shortened: as §1

[8] = test system: sedge, umbrella (small-flower umbrella sedge, Cyperus difformis); experiment: Test B flooded paddy test, umbrella sedge; settings: Cyperus difformis; 250 g ai/ha, Flood; visual rating after 13 to 15 days; scale 0 to 100, 0 is no effect, 100 is complete control; read-out: Plant response rating, Sedge, Umbrella
Procedure, shortened: (§2)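 Visual injury scored 0 (no effect) to 100 (complete control) relative to controls 13-15 days after treatment in greenhouse. Treatment: test compound added into paddy water of pots flooded 3 cm over soil, holding 2-leaf-stage plants; water level kept constant.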

[9] = test system: kochia (Kochia scoparia); experiment: Test A preemergence, kochia; settings: Bassia scoparia, pre-emergence, 240 h, Preemergence, 0 to 100 scale (0 no effect, 100 complete control), read-out: Plant response rating, Kochia; for pest or weed control at 125 g/ha: 125 g ai/ha
Procedure, shortened: as §1

[10] = test system: rice (Oryza sativa); experiment: Test B flooded paddy test, rice; settings: Oryza sativa; 250 g ai/ha, Flood; visual rating after 13 to 15 days; scale 0 to 100, 0 is no effect, 100 is complete control; read-out: Plant response rating, Rice
Procedure, shortened: as §2

[11] = test system: ragweed (common ragweed, Ambrosia elatior); experiment: Test A preemergence, ragweed; settings: Ambrosia artemisiifolia, pre-emergence, 240 h, Preemergence, 0 to 100 scale (0 no effect, 100 complete control), read-out: Plant response rating, Ragweed; for pest or weed control at 125 g/ha: 125 g ai/ha
Procedure, shortened: as §1

[12] = test system: ryegrass, Italian (Italian ryegrass, Lolium multiflorum); experiment: Test A preemergence, Italian ryegrass; settings: Lolium multiflorum, pre-emergence, 240 h, Preemergence, 0 to 100 scale (0 no effect, 100 complete control), read-out: Plant response rating, Ryegrass, Italian; for pest or weed control at 125 g/ha: 125 g ai/ha
Procedure, shortened: as §1

[13] = test system: ragweed (common ragweed, Ambrosia elatior); experiment: Test A postemergence, ragweed; settings: Ambrosia artemisiifolia, post-emergence, 240 h, postemergence, 0 to 100 scale, 0 is no effect, 100 is complete control, approximately 10 days, read-out: Plant response rating, Ragweed; for pest or weed control at 125 g/ha: 125 g ai/ha
Procedure, shortened: as §1

[14] = test system: barnyardgrass (Echinochloa crus-galli); experiment: Test B flooded paddy test, barnyardgrass; settings: Echinochloa crus-galli; 250 g ai/ha, Flood; visual rating after 13 to 15 days; scale 0 to 100, 0 is no effect, 100 is complete control; read-out: Plant response rating, Barnyardgrass
Procedure, shortened: as §2

[15] = test system: foxtail, giant (giant foxtail, Setaria faberii); experiment: Test A preemergence, giant foxtail; settings: Setaria faberi, pre-emergence, 240 h, Preemergence, 0 to 100 scale (0 no effect, 100 complete control), read-out: Plant response rating, Foxtail, Giant; for pest or weed control at 125 g/ha: 125 g ai/ha
Procedure, shortened: as §1

Compound | pest or weed control at 125 g/ha [1] [%] | pest or weed control at 125 g/ha [2] [%] | pest or weed control at 125 g/ha [3] [%] | plant injury at 125 g/ha [4] [%] | pest or weed control at 125 g/ha [5] [%] | pest or weed control at 125 g/ha [6] [%] | Corn plant response rating (crop injury, 0 = no effect, 100 = complete kill) at 125 g/ha [7] [%] | pest or weed control at 250 g/ha [8] [%] | pest or weed control at 125 g/ha [9] [%] | plant injury at 250 g/ha [10] [%] | pest or weed control at 125 g/ha [11] [%] | pest or weed control at 125 g/ha [12] [%] | pest or weed control at 125 g/ha [13] [%] | pest or weed control at 250 g/ha [14] [%] | pest or weed control at 125 g/ha [15] [%] | also measured
N#Cc1cccc(Oc2ncc(F)cn2)c1OCCCC(F)(F)F [Compound 4, 3-[(5-fluoro-2-pyrimidinyl)oxy]-2-(4,4,4-trifluorobutoxy)benzonitrile] | 90 | 100 | 90 | 20 | 100 | 90 | 90 | 95 | 90 | 30 | 30 | 60 | 20 | 50 | 100 | pest or weed control at 31 g/ha ([1]; 31 g ai/ha): 20%; pest or weed control at 31 g/ha ([2]; 31 g ai/ha): 70%; pest or weed control at 31 g/ha ([3]; 31 g ai/ha): 40%; plant injury at 31 g/ha ([4]; 31 g ai/ha): 20%; pest or weed control at 31 g/ha ([5]; 31 g ai/ha): 90%; pest or weed control at 31 g/ha ([6]; 31 g ai/ha): 50%; Corn plant response rating (crop injury, 0 = no effect, 100 = complete kill) at 31 g/ha ([7]; 31 g ai/ha): 40%; pest or weed control at 31 g/ha ([9]; 31 g ai/ha): 40%; pest or weed control at 31 g/ha ([11]; 31 g ai/ha): 10%; pest or weed control at 31 g/ha ([12]; 31 g ai/ha): 10%; pest or weed control at 31 g/ha ([13]; 31 g ai/ha): 0%; pest or weed control at 31 g/ha ([15]; 31 g ai/ha): 100%
N#Cc1cccc(Oc2ncc(Cl)cn2)c1OCC(F)(F)C(F)(F)F [Compound 10, 3-[(5-chloro-2-pyrimidinyl)oxy]-2-(2,2,3,3,3-pentafluoropropoxy)benzonitrile] | 90 | 100 | 90 | 30 | 100 | 90 | 70 | 85 | 100 | 20 | 20 | 40 | 0 | 50 | 100 | pest or weed control at 500 g/ha ([1]; 500 g ai/ha): 100%; pest or weed control at 500 g/ha ([2]; 500 g ai/ha): 100%; pest or weed control at 500 g/ha ([3]; 500 g ai/ha): 100%; plant injury at 500 g/ha ([4]; 500 g ai/ha): 90%; pest or weed control at 500 g/ha ([5]; 500 g ai/ha): 100%; pest or weed control at 500 g/ha ([6]; 500 g ai/ha): 100%; Corn plant response rating (crop injury, 0 = no effect, 100 = complete kill) at 500 g/ha ([7]; 500 g ai/ha): 100%; pest or weed control at 500 g/ha ([9]; 500 g ai/ha): 100%; pest or weed control at 500 g/ha ([11]; 500 g ai/ha): 10%; pest or weed control at 500 g/ha ([12]; 500 g ai/ha): 100%; pest or weed control at 500 g/ha ([13]; 500 g ai/ha): 50%; pest or weed control at 500 g/ha ([15]; 500 g ai/ha): 100%
